Measurements from patent US10544134B2, “4-substituted coumarin derivatives and preparation methods and uses thereof” (SI CHUAN UNIVERSITY, priority 2015, dated 2020).

Tested on: colon carcinoma cell HCT116
Test: Tumor cell proliferation inhibitory activity test in vitro (MTT)
Format: cell-based, human
Settings: Homo sapiens, HCT-116, 72 hours, read-out: IC50 of compounds for tumor cells, Activity, HCT116
Text: (§1) Human non-small cell lung cancer cell line NCI-H460, human small cell lung cancer cell line NCI-H446, human hepatocellular carcinoma cell strain HepG2, human colon carcinoma cell strain HCT116, human prostate cancer PC-3, human melanoma A375, colon carcinoma cell HCT-8, breast cancer cell MCF-7, ovarian cancer cell A2780s, drug-resistant ovarian cancer cell A2780/T, drug-resistant colon cancer cell HCT-8/T and doxorubicin-resistant breast cancer cell MCF-7/ADR are obtained from American Type Culture Collection (ATCC) and are cultured and preserved by the cell bank of State Key Laboratory of Biotherapy of Sichuan University. Above tumor cells are routinely cultured in DMEM culture medium containing 10% fetal bovine serum, 100 U·mL-1 penicillin and 100 mg·L−1 streptomycin, and in an incubator at 37° C. and with saturated humidity and 5% CO2 concentration.
(§2) Fill diluted cell suspension in the 96-well plate with 1000-10000 cells per well and incubate it in CO2 incubator overnight.
(§3) Replace with new medium containing various concentrations of compounds to be tested for the test group and replace with fresh medium with equal volume for the control group, each group is arranged with 5 parallel wells and incubated in an incubator at 37° C. and with 5% CO2 concentration.
(§4) Discard the supernatant after 72 hours, add 200 μL freshly prepared serum-free medium containing 0.2 mg/mL MTT into each well, continue to incubate at 37° C. for 1-4 hours, then stop incubation, carefully remove the culture supernatant in the wells and add 200 uL DMSO (dimethyl sulfoxide), oscillate with a miniature ultrasonic oscillator for 15-20 minutes to make the crystal fully dissolved and mixed. Determine OD values using a microplate reader at 570 nm with a reference wavelength of 450 nm.
(§5) Draw curves based on the growth inhibition rate for tumor cells of the same sample with different concentrations to get dose-response curve, so as to calculate IC50. Repeat each test for 3 times, measure IC50 (μM) or nanomolor concentration (nM) of compounds in different tumor cells.

SMILES | IC50 [µM]
COc1ccc(N(C)c2cc(=O)oc3cc(OC)ccc23)cc1 [COUM-40, 4-(N-methyl-N-(4-methoxybenzene)-amino)-7-methoxycoumarin] | 0.01 to 0.1
CCOC(=O)c1cccc(-c2ccc(-c3cc(=O)oc4ccccc34)s2)c1 [COUM-32] | > 5
O=c1cc(-c2ccc(-c3ccccc3Cl)s2)c2ccccc2o1 [COUM-30, 4-(5-(2-chlorobenzene)thiophene-2-yl)-coumarin] | > 5
COc1ccc2c(c1)CCCN2c1cc(=O)oc2cc(OC)ccc12 [COUM-38, 4-(6-methoxy-3,4-dihydroquinoline-1(211)-yl)-7 methoxycoumarin] | 0.1 to 5
Cc1ccc(-c2ccc(-c3cc(=O)oc4ccccc34)o2)cc1 [COUM-17, 4-(5-(4-methylphenyl)furan-2-yl)-coumarin] | > 5
COc1ccc2c(c1)CN(c1cc(=O)oc3ccccc13)CCC2 [COUM-37, 4-(8-methoxy-1,3,4,5-tetrahydro-2H-benzoazepine-2-yl) Coumarin] | 0.1 to 5

Tested on: non-small cell lung cancer cell line NCI-H460
Test: as above
Format: cell-based, human
Settings: Homo sapiens, NCI-H460, 72 hours, read-out: IC50 of compounds for tumor cells, Activity, H460
Text: as §1, §2, §3, §4, §5

SMILES | IC50 [µM]
COc1ccc(N(C)c2cc(=O)oc3cc(OC)ccc23)cc1 [COUM-40, 4-(N-methyl-N-(4-methoxybenzene)-amino)-7-methoxycoumarin] | 0.01 to 0.1
CCOC(=O)c1cccc(-c2ccc(-c3cc(=O)oc4ccccc34)s2)c1 [COUM-32] | > 5
O=c1cc(-c2ccc(-c3ccccc3Cl)s2)c2ccccc2o1 [COUM-30, 4-(5-(2-chlorobenzene)thiophene-2-yl)-coumarin] | > 5
COc1ccc2c(c1)CCCN2c1cc(=O)oc2cc(OC)ccc12 [COUM-38, 4-(6-methoxy-3,4-dihydroquinoline-1(211)-yl)-7 methoxycoumarin] | 0.1 to 5
Cc1ccc(-c2ccc(-c3cc(=O)oc4ccccc34)o2)cc1 [COUM-17, 4-(5-(4-methylphenyl)furan-2-yl)-coumarin] | > 5
COc1ccc2c(c1)CN(c1cc(=O)oc3ccccc13)CCC2 [COUM-37, 4-(8-methoxy-1,3,4,5-tetrahydro-2H-benzoazepine-2-yl) Coumarin] | 0.1 to 5

Tested on: prostate cancer PC-3
Test: as above
Format: cell-based, human
Settings: Homo sapiens, 72 hours, read-out: IC50 of compounds for tumor cells, Activity, PC-3
Text: as §1, §2, §3, §4, §5

SMILES | IC50 [µM]
COc1ccc(N(C)c2cc(=O)oc3cc(OC)ccc23)cc1 [COUM-40, 4-(N-methyl-N-(4-methoxybenzene)-amino)-7-methoxycoumarin] | 0.01 to 0.1
CCOC(=O)c1cccc(-c2ccc(-c3cc(=O)oc4ccccc34)s2)c1 [COUM-32] | > 5
O=c1cc(-c2ccc(-c3ccccc3Cl)s2)c2ccccc2o1 [COUM-30, 4-(5-(2-chlorobenzene)thiophene-2-yl)-coumarin] | > 5
COc1ccc2c(c1)CCCN2c1cc(=O)oc2cc(OC)ccc12 [COUM-38, 4-(6-methoxy-3,4-dihydroquinoline-1(211)-yl)-7 methoxycoumarin] | 0.1 to 5
Cc1ccc(-c2ccc(-c3cc(=O)oc4ccccc34)o2)cc1 [COUM-17, 4-(5-(4-methylphenyl)furan-2-yl)-coumarin] | > 5
COc1ccc2c(c1)CN(c1cc(=O)oc3ccccc13)CCC2 [COUM-37, 4-(8-methoxy-1,3,4,5-tetrahydro-2H-benzoazepine-2-yl) Coumarin] | 0.1 to 5

Tested on: melanoma A375
Test: as above
Format: cell-based, human
Settings: Homo sapiens, A-375, 72 hours, read-out: IC50 of compounds for tumor cells, Activity, A375
Text: as §1, §2, §3, §4, §5

SMILES | IC50 [µM]
COc1ccc(N(C)c2cc(=O)oc3cc(OC)ccc23)cc1 [COUM-40, 4-(N-methyl-N-(4-methoxybenzene)-amino)-7-methoxycoumarin] | 0.01 to 0.1
CCOC(=O)c1cccc(-c2ccc(-c3cc(=O)oc4ccccc34)s2)c1 [COUM-32] | > 5
O=c1cc(-c2ccc(-c3ccccc3Cl)s2)c2ccccc2o1 [COUM-30, 4-(5-(2-chlorobenzene)thiophene-2-yl)-coumarin] | > 5
COc1ccc2c(c1)CCCN2c1cc(=O)oc2cc(OC)ccc12 [COUM-38, 4-(6-methoxy-3,4-dihydroquinoline-1(211)-yl)-7 methoxycoumarin] | 0.1 to 5
Cc1ccc(-c2ccc(-c3cc(=O)oc4ccccc34)o2)cc1 [COUM-17, 4-(5-(4-methylphenyl)furan-2-yl)-coumarin] | > 5
COc1ccc2c(c1)CN(c1cc(=O)oc3ccccc13)CCC2 [COUM-37, 4-(8-methoxy-1,3,4,5-tetrahydro-2H-benzoazepine-2-yl) Coumarin] | 0.1 to 5

Tested on: hepatocellular carcinoma cell HEPG2
Test: as above
Format: cell-based, human
Settings: Homo sapiens, HepG2, 72 hours, read-out: IC50 of compounds for tumor cells, Activity, HEPG2
Text: as §1, §2, §3, §4, §5

SMILES | IC50 [µM]
COc1ccc(N(C)c2cc(=O)oc3cc(OC)ccc23)cc1 [COUM-40, 4-(N-methyl-N-(4-methoxybenzene)-amino)-7-methoxycoumarin] | 0.01 to 0.1
CCOC(=O)c1cccc(-c2ccc(-c3cc(=O)oc4ccccc34)s2)c1 [COUM-32] | > 5
O=c1cc(-c2ccc(-c3ccccc3Cl)s2)c2ccccc2o1 [COUM-30, 4-(5-(2-chlorobenzene)thiophene-2-yl)-coumarin] | > 5
COc1ccc2c(c1)CCCN2c1cc(=O)oc2cc(OC)ccc12 [COUM-38, 4-(6-methoxy-3,4-dihydroquinoline-1(211)-yl)-7 methoxycoumarin] | 0.1 to 5
Cc1ccc(-c2ccc(-c3cc(=O)oc4ccccc34)o2)cc1 [COUM-17, 4-(5-(4-methylphenyl)furan-2-yl)-coumarin] | > 5
COc1ccc2c(c1)CN(c1cc(=O)oc3ccccc13)CCC2 [COUM-37, 4-(8-methoxy-1,3,4,5-tetrahydro-2H-benzoazepine-2-yl) Coumarin] | 0.1 to 5

Tested on: breast cancer cell MCF-7
Test: as above
Format: cell-based
Settings: Homo sapiens, MCF7, 72 hours, read-out: IC50 of compounds for tumor cells, Activity, MCF-7
Text: as §1, §2, §3, §4, §5

SMILES | IC50 [µM]
COc1ccc(N(C)c2cc(=O)oc3cc(OC)ccc23)cc1 [COUM-40, 4-(N-methyl-N-(4-methoxybenzene)-amino)-7-methoxycoumarin] | 0.01 to 0.1
CCOC(=O)c1cccc(-c2ccc(-c3cc(=O)oc4ccccc34)s2)c1 [COUM-32] | > 5
O=c1cc(-c2ccc(-c3ccccc3Cl)s2)c2ccccc2o1 [COUM-30, 4-(5-(2-chlorobenzene)thiophene-2-yl)-coumarin] | > 5
COc1ccc2c(c1)CCCN2c1cc(=O)oc2cc(OC)ccc12 [COUM-38, 4-(6-methoxy-3,4-dihydroquinoline-1(211)-yl)-7 methoxycoumarin] | 0.1 to 5
Cc1ccc(-c2ccc(-c3cc(=O)oc4ccccc34)o2)cc1 [COUM-17, 4-(5-(4-methylphenyl)furan-2-yl)-coumarin] | > 5
COc1ccc2c(c1)CN(c1cc(=O)oc3ccccc13)CCC2 [COUM-37, 4-(8-methoxy-1,3,4,5-tetrahydro-2H-benzoazepine-2-yl) Coumarin] | 0.1 to 5
